# Data published in patent publication US20150105252A1, “SUBSTITUTED PYRAZOLES AS HERBICIDES” (E I DU PONT DE NEMOURS AND COMPANY, priority 2013, published 2015).
# What was measured:
# velvetleaf = test: Test C preemergence; format: in vivo, Abutilon theophrasti; details: for Plant response rating (scale of 0 to 100), Velvetleaf: Preemergence, 250 g ai/ha; for Velvetleaf plant response rating: preemergence
# How it was run: (§1)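 Greenhouse pot test: preemergence application onto freshly seeded loam/sand mix, postemergence application onto seedlings (1–4 leaves, 2–18 cm) in peat-vermiculite substrate. Responses scored visually 13 to 15 days later relative to controls, where 0 means no effect and 100 means complete control; a dash indicates no result.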
# crabgrass, large [1] = test: Test C preemergence; format: in vivo, Digitaria sanguinalis; details: for Plant response rating (scale of 0 to 100), Crabgrass, Large: Preemergence, 250 g ai/ha; for Crabgrass, Large plant response rating: preemergence
# How it was run: as §1
# pigweed = test: Test A postemergence; format: in vivo, Amaranthus retroflexus
# How it was run: (§2)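 Seeds were sown in a loam soil–sand blend and given a directed soil spray preemergence; postemergence plants at 2–10 cm, one- to two-leaf stage, were sprayed with compound in non-phytotoxic solvent with surfactant. After about 10 days in a greenhouse, injury was visually rated against untreated controls (0 = no effect, 100 = complete control).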
# barnyardgrass [2] = test: Test A postemergence; format: in vivo, Echinochloa crus-galli
# How it was run: as §2
# ryegrass, Italian = test: Test C preemergence; format: in vivo, Lolium multiflorum; details: for Plant response rating (scale of 0 to 100), Ryegrass, Italian: Preemergence, 250 g ai/ha; for Ryegrass, Italian plant response rating: preemergence
# How it was run: as §1
# foxtail, giant = test: Test C preemergence; format: in vivo, Setaria faberii; details: for Plant response rating (scale of 0 to 100), Foxtail, Giant: Preemergence, 250 g ai/ha; for Foxtail, Giant plant response rating: preemergence
# How it was run: as §1
# crabgrass, large [3] = test: Test C postemergence; format: in vivo, Digitaria sanguinalis; details: for Plant response rating (scale of 0 to 100 where 0 is no effect and 100 is complete control), Crabgrass, Large: Postemergence, 31 g ai/ha, visually evaluated after 13 to 15 days; for Crabgrass, Large plant response rating / Plant response rating, Crabgrass, Large: postemergence; for Crabgrass, Large plant response rating: 62 g ai/ha, scale 0 to 100
# How it was run: as §1
# crabgrass, large [4] = test: Test A preemergence; format: in vivo, Digitaria sanguinalis; details: preemergence
# How it was run: as §2
# barnyardgrass [5] = test: Test C postemergence; format: in vivo, Echinochloa crus-galli; details: for Plant response rating (scale of 0 to 100 where 0 is no effect and 100 is complete control), Barnyardgrass: Postemergence, 31 g ai/ha, visually evaluated after 13 to 15 days; for Barnyardgrass plant response rating / Plant response rating, Barnyardgrass: postemergence; for Barnyardgrass plant response rating: 62 g ai/ha, scale 0 to 100
# How it was run: as §1
# kochia = test: Test C postemergence; format: in vivo, Kochia scoparia; details: for Plant response rating (scale of 0 to 100 where 0 is no effect and 100 is complete control), Kochia: Postemergence, 31 g ai/ha, visually evaluated after 13 to 15 days; for Kochia plant response rating / Plant response rating, Kochia: postemergence; for Kochia plant response rating: 62 g ai/ha, scale 0 to 100
# How it was run: as §1
# morningglory = test: Test A preemergence; format: in vivo, Ipomoea spp.; details: preemergence
# How it was run: as §2
# johnsongrass = test: Test C preemergence; format: in vivo, Sorghum halepense; details: for Plant response rating (scale of 0 to 100), Johnsongrass: Preemergence, 250 g ai/ha; for Johnsongrass plant response rating: preemergence
# How it was run: as §1
# waterhemp = test: Test C preemergence; format: in vivo, Amaranthus rudis; details: for Plant response rating (scale of 0 to 100), Waterhemp: Preemergence, 250 g ai/ha; for Waterhemp plant response rating: preemergence
# How it was run: as §1
# chickweed = test: Test C postemergence; format: in vivo, Stellaria media; details: for Plant response rating (scale of 0 to 100 where 0 is no effect and 100 is complete control), Chickweed: Postemergence, 31 g ai/ha, visually evaluated after 13 to 15 days; for Chickweed plant response rating / Plant response rating, Chickweed: postemergence; for Chickweed plant response rating: 62 g ai/ha, scale 0 to 100
# How it was run: as §1
# [6] = 31 g ai/ha, visual rating, scale 0 to 100 (0 no effect, 100 complete control), 13 to 15 days
# [7] = 62 g ai/ha, scale 0 to 100 (0 no effect, 100 complete control), 13 to 15 days
# [8] = 125 g ai/ha, scale 0 to 100, 0 is no effect, 100 is complete control
# [9] = Postemergence, 500 g ai/ha, visual rating after approx. 10 days, 0 to 100 scale (0 no effect, 100 complete control)
# [10] = postemergence, 125 g ai/ha, about 10 days, visual rating on 0 to 100 scale (0 no effect, 100 complete control)
# [11] = 250 g ai/ha, scale 0 to 100 (0 no effect, 100 complete control)
# [12] = 125 g ai/ha, scale 0 to 100, 0 no effect, 100 complete control
# [13] = 125 g ai/ha, visual injury, 0 to 100 scale, approx. 10 days
# [14] = 500 g ai/ha, visual injury after approx. 10 days, 0 to 100 scale (0 no effect, 100 complete control)
structure (smiles),measurement,setting,value
"CCc1cc(C(=O)NCC(F)(F)F)nn1Cc1cc(C(F)(F)F)nn1C [Compound 108, 5-ethyl-1-[[1-methyl-3-(trifluoromethyl)-1H-pyrazole-5-yl]methyl]-N-(2,2,2-trifluoroethyl)-1H-pyrazole-3-carboxamide]","Plant response rating (scale of 0 to 100), Velvetleaf",velvetleaf,100
same,Velvetleaf plant response rating,velvetleaf; [6],55
same,Velvetleaf plant response rating,velvetleaf; [7],100
same,Velvetleaf plant response rating,velvetleaf; [8],100
same,"Plant response rating (scale of 0 to 100), Crabgrass, Large","crabgrass, large [1]",100
same,"Crabgrass, Large plant response rating","crabgrass, large [1]; [6]",100
same,"Crabgrass, Large plant response rating","crabgrass, large [1]; [7]",100
same,"Crabgrass, Large plant response rating","crabgrass, large [1]; [8]",100
same,Pigweed plant response rating,pigweed; [9],100
same,Pigweed plant response rating,pigweed; [10],90
same,Barnyardgrass plant response rating,barnyardgrass [2]; [9],90
same,Barnyardgrass plant response rating,barnyardgrass [2]; [10],90
same,"Plant response rating (scale of 0 to 100), Ryegrass, Italian","ryegrass, Italian",100
same,"Ryegrass, Italian plant response rating","ryegrass, Italian; [6]",30
same,"Ryegrass, Italian plant response rating","ryegrass, Italian; [7]",60
same,"Ryegrass, Italian plant response rating","ryegrass, Italian; [8]",90
same,"Plant response rating (scale of 0 to 100), Foxtail, Giant","foxtail, giant",100
same,"Foxtail, Giant plant response rating","foxtail, giant; [6]",100
same,"Foxtail, Giant plant response rating","foxtail, giant; [7]",100
same,"Foxtail, Giant plant response rating","foxtail, giant; [8]",100
same,"Plant response rating (scale of 0 to 100 where 0 is no effect and 100 is complete control), Crabgrass, Large","crabgrass, large [3]",5
same,"Crabgrass, Large plant response rating","crabgrass, large [3]",10
same,"Plant response rating, Crabgrass, Large","crabgrass, large [3]; [11]",50
same,"Plant response rating, Crabgrass, Large","crabgrass, large [3]; [12]",10
same,"Crabgrass, Large plant response rating","crabgrass, large [4]; [13]",100
same,"Crabgrass, Large plant response rating","crabgrass, large [4]; [14]",100
same,"Plant response rating (scale of 0 to 100 where 0 is no effect and 100 is complete control), Barnyardgrass",barnyardgrass [5],0
same,Barnyardgrass plant response rating,barnyardgrass [5],0
same,"Plant response rating, Barnyardgrass",barnyardgrass [5]; [11],35
same,"Plant response rating, Barnyardgrass",barnyardgrass [5]; [12],5
same,"Plant response rating (scale of 0 to 100 where 0 is no effect and 100 is complete control), Kochia",kochia,40
same,Kochia plant response rating,kochia,60
same,"Plant response rating, Kochia",kochia; [11],90
same,"Plant response rating, Kochia",kochia; [12],80
same,Morningglory plant response rating,morningglory; [13],100
same,Morningglory plant response rating,morningglory; [14],100
same,"Plant response rating (scale of 0 to 100), Johnsongrass",johnsongrass,100
same,Johnsongrass plant response rating,johnsongrass; [6],35
same,Johnsongrass plant response rating,johnsongrass; [7],90
same,Johnsongrass plant response rating,johnsongrass; [8],100
same,"Plant response rating (scale of 0 to 100), Waterhemp",waterhemp,100
same,Waterhemp plant response rating,waterhemp; [6],98
same,Waterhemp plant response rating,waterhemp; [7],100
same,Waterhemp plant response rating,waterhemp; [8],100
same,"Plant response rating (scale of 0 to 100 where 0 is no effect and 100 is complete control), Chickweed",chickweed,85
same,Chickweed plant response rating,chickweed,100
same,"Plant response rating, Chickweed",chickweed; [11],100
same,"Plant response rating, Chickweed",chickweed; [12],100
CCCNC(=O)c1cc(CC)n(Cc2nc(C(F)(F)F)nn2C)n1 [Compound 109],"Plant response rating (scale of 0 to 100), Velvetleaf",velvetleaf,100
same,Velvetleaf plant response rating,velvetleaf; [6],10
same,Velvetleaf plant response rating,velvetleaf; [7],80
same,Velvetleaf plant response rating,velvetleaf; [8],100
same,"Plant response rating (scale of 0 to 100), Crabgrass, Large","crabgrass, large [1]",100
same,"Crabgrass, Large plant response rating","crabgrass, large [1]; [6]",90
same,"Crabgrass, Large plant response rating","crabgrass, large [1]; [7]",100
same,"Crabgrass, Large plant response rating","crabgrass, large [1]; [8]",100
same,Pigweed plant response rating,pigweed; [9],90
same,Pigweed plant response rating,pigweed; [10],90
same,Barnyardgrass plant response rating,barnyardgrass [2]; [9],90
same,Barnyardgrass plant response rating,barnyardgrass [2]; [10],90
same,"Plant response rating (scale of 0 to 100), Ryegrass, Italian","ryegrass, Italian",100
same,"Ryegrass, Italian plant response rating","ryegrass, Italian; [6]",10
same,"Ryegrass, Italian plant response rating","ryegrass, Italian; [7]",50
same,"Ryegrass, Italian plant response rating","ryegrass, Italian; [8]",100
same,"Plant response rating (scale of 0 to 100), Foxtail, Giant","foxtail, giant",100
same,"Foxtail, Giant plant response rating","foxtail, giant; [6]",100
same,"Foxtail, Giant plant response rating","foxtail, giant; [7]",100
same,"Foxtail, Giant plant response rating","foxtail, giant; [8]",100
same,"Plant response rating (scale of 0 to 100 where 0 is no effect and 100 is complete control), Crabgrass, Large","crabgrass, large [3]",5
same,"Crabgrass, Large plant response rating","crabgrass, large [3]",10
same,"Plant response rating, Crabgrass, Large","crabgrass, large [3]; [11]",45
same,"Plant response rating, Crabgrass, Large","crabgrass, large [3]; [12]",10
same,"Crabgrass, Large plant response rating","crabgrass, large [4]; [13]",100
same,"Crabgrass, Large plant response rating","crabgrass, large [4]; [14]",100
same,"Plant response rating (scale of 0 to 100 where 0 is no effect and 100 is complete control), Barnyardgrass",barnyardgrass [5],5
same,Barnyardgrass plant response rating,barnyardgrass [5],5
same,"Plant response rating, Barnyardgrass",barnyardgrass [5]; [11],20
same,"Plant response rating, Barnyardgrass",barnyardgrass [5]; [12],10
same,"Plant response rating (scale of 0 to 100 where 0 is no effect and 100 is complete control), Kochia",kochia,50
same,Kochia plant response rating,kochia,75
same,"Plant response rating, Kochia",kochia; [11],90
same,"Plant response rating, Kochia",kochia; [12],90
same,Morningglory plant response rating,morningglory; [13],100
same,Morningglory plant response rating,morningglory; [14],100
same,"Plant response rating (scale of 0 to 100), Johnsongrass",johnsongrass,100
same,Johnsongrass plant response rating,johnsongrass; [6],80
same,Johnsongrass plant response rating,johnsongrass; [7],90
same,Johnsongrass plant response rating,johnsongrass; [8],100
same,"Plant response rating (scale of 0 to 100), Waterhemp",waterhemp,100
same,Waterhemp plant response rating,waterhemp; [6],75
same,Waterhemp plant response rating,waterhemp; [7],100
same,Waterhemp plant response rating,waterhemp; [8],100
same,"Plant response rating (scale of 0 to 100 where 0 is no effect and 100 is complete control), Chickweed",chickweed,40
same,Chickweed plant response rating,chickweed,50
same,"Plant response rating, Chickweed",chickweed; [11],65
same,"Plant response rating, Chickweed",chickweed; [12],55
